From patent US20250275540A1, “USE OF PROTOPORPHYRINOGEN OXIDASE” (BEIJING DABEINONG BIOTECHNOLOGY CO., LTD., priority 2022, published 2025)

Tested on: transgenic soybean plants
Test: Detection of the herbicide tolerance of the transgenic soybean plants
Format: in vivo
Conditions: for The grade of pesticide damage/plant: 0 / The grade of pesticide damage/plant: 1 / The grade of pesticide damage/plant: 2 / The grade of pesticide damage/plant: 3: 7 DAT
[1] = genotype Control vector, 120 g ai/ha
[2] = genotype Control vector, 240 g ai/ha
[3] = genotype PPO-AP-01, 120 g ai/ha
[4] = genotype PPO-AP-01, 240 g ai/ha
[5] = genotype PPO-EC-01, 120 g ai/ha
[6] = genotype PPO-EC-01, 240 g ai/ha

## C#CCN1C(=O)COc2cc(F)c(N3C(=O)C4=C(CCCC4)C3=O)cc21 [flumioxazin, 2-[7-fluoro-3,4-dihydro-3-oxo-4-(2-propynyl)-2H-1,4-benzoxazin-6-yl]-4,5,6,7-tetrahydro-1H-isoindole-1,3(2H)-dione]
Genotype CK, 120 g ai/ha
  The grade of pesticide damage/plant: 0: 0 plant
  The grade of pesticide damage/plant: 1: 0 plant
  The grade of pesticide damage/plant: 2: 0 plant
  The grade of pesticide damage/plant: 3: 16 plant
Genotype CK, 240 g ai/ha
  The grade of pesticide damage/plant: 0: 0 plant
  The grade of pesticide damage/plant: 1: 0 plant
  The grade of pesticide damage/plant: 2: 0 plant
  The grade of pesticide damage/plant: 3: 16 plant
[1]
  The grade of pesticide damage/plant: 0: 0 plant
  The grade of pesticide damage/plant: 1: 0 plant
  The grade of pesticide damage/plant: 2: 0 plant
  The grade of pesticide damage/plant: 3: 16 plant
[2]
  The grade of pesticide damage/plant: 0: 0 plant
  The grade of pesticide damage/plant: 1: 0 plant
  The grade of pesticide damage/plant: 2: 0 plant
  The grade of pesticide damage/plant: 3: 16 plant
[3]
  The grade of pesticide damage/plant: 0: 0 plant
  The grade of pesticide damage/plant: 1: 0 plant
  The grade of pesticide damage/plant: 2: 0 plant
  The grade of pesticide damage/plant: 3: 16 plant
[4]
  The grade of pesticide damage/plant: 0: 0 plant
  The grade of pesticide damage/plant: 1: 0 plant
  The grade of pesticide damage/plant: 2: 0 plant
  The grade of pesticide damage/plant: 3: 16 plant
Genotype PPO-AP-01, at different concentrations
  tolerance to the herbicide (in words): no flumioxazin tolerance
[5]
  The grade of pesticide damage/plant: 0: 16 plant
  The grade of pesticide damage/plant: 1: 0 plant
  The grade of pesticide damage/plant: 2: 0 plant
  The grade of pesticide damage/plant: 3: 0 plant
[6]
  The grade of pesticide damage/plant: 0: 15 plant
  The grade of pesticide damage/plant: 1: 1 plant
  The grade of pesticide damage/plant: 2: 0 plant
  The grade of pesticide damage/plant: 3: 0 plant
Genotype PPOA-01, 120 g ai/ha
  The grade of pesticide damage/plant: 0: 16 plant
  The grade of pesticide damage/plant: 1: 0 plant
  The grade of pesticide damage/plant: 2: 0 plant
  The grade of pesticide damage/plant: 3: 0 plant
Genotype PPOA-01, 240 g ai/ha
  The grade of pesticide damage/plant: 0: 14 plant
  The grade of pesticide damage/plant: 1: 2 plant
  The grade of pesticide damage/plant: 2: 0 plant
  The grade of pesticide damage/plant: 3: 0 plant
Genotype PPOB-01, 120 g ai/ha
  The grade of pesticide damage/plant: 0: 16 plant
  The grade of pesticide damage/plant: 1: 0 plant
  The grade of pesticide damage/plant: 2: 0 plant
  The grade of pesticide damage/plant: 3: 0 plant
Genotype PPOB-01, 240 g ai/ha
  The grade of pesticide damage/plant: 0: 15 plant
  The grade of pesticide damage/plant: 1: 1 plant
  The grade of pesticide damage/plant: 2: 0 plant
  The grade of pesticide damage/plant: 3: 0 plant
Genotype PPOC-01, 120 g ai/ha
  The grade of pesticide damage/plant: 0: 16 plant
  The grade of pesticide damage/plant: 1: 0 plant
  The grade of pesticide damage/plant: 2: 0 plant
  The grade of pesticide damage/plant: 3: 0 plant
Genotype PPOC-01, 240 g ai/ha
  The grade of pesticide damage/plant: 0: 16 plant
  The grade of pesticide damage/plant: 1: 0 plant
  The grade of pesticide damage/plant: 2: 0 plant
  The grade of pesticide damage/plant: 3: 0 plant
Genotype PPOD-01, 120 g ai/ha
  The grade of pesticide damage/plant: 0: 16 plant
  The grade of pesticide damage/plant: 1: 0 plant
  The grade of pesticide damage/plant: 2: 0 plant
  The grade of pesticide damage/plant: 3: 0 plant
Genotype PPOD-01, 240 g ai/ha
  The grade of pesticide damage/plant: 0: 16 plant
  The grade of pesticide damage/plant: 1: 0 plant
  The grade of pesticide damage/plant: 2: 0 plant
  The grade of pesticide damage/plant: 3: 0 plant
Genotype PPOE-01, 120 g ai/ha
  The grade of pesticide damage/plant: 0: 16 plant
  The grade of pesticide damage/plant: 1: 0 plant
  The grade of pesticide damage/plant: 2: 0 plant
  The grade of pesticide damage/plant: 3: 0 plant
Genotype PPOE-01, 240 g ai/ha
  The grade of pesticide damage/plant: 0: 15 plant
  The grade of pesticide damage/plant: 1: 1 plant
  The grade of pesticide damage/plant: 2: 0 plant
  The grade of pesticide damage/plant: 3: 0 plant
Genotype PPOF-01, 120 g ai/ha
  The grade of pesticide damage/plant: 0: 16 plant
  The grade of pesticide damage/plant: 1: 0 plant
  The grade of pesticide damage/plant: 2: 0 plant
  The grade of pesticide damage/plant: 3: 0 plant
Genotype PPOF-01, 240 g ai/ha
  The grade of pesticide damage/plant: 0: 14 plant
  The grade of pesticide damage/plant: 1: 2 plant
  The grade of pesticide damage/plant: 2: 0 plant
  The grade of pesticide damage/plant: 3: 0 plant
Genotypes PPOA-01 to PPOF-01 and PPO-EC-01, at different concentrations
  tolerance to the herbicide (in words): high-resistant tolerance
